# Measurements reported in patent publication US8962660B2 (Bristol-Myers Squibb Company, priority 2013, dated 2015).
# Experiments:
# human GPR120 = target: T1, human GPR120 (Homo sapiens, UniProt Q5NUL3); experiment: GPR120 pERK AlphaScreen SureFire assay (human); format: cell-based; conditions: CHO cells stably transfected with short form of human GPR120
# T1 construct: expressed in transfected cells; host or cells: CHOA12 cells
# T1 sequence (Q5NUL3 1-361): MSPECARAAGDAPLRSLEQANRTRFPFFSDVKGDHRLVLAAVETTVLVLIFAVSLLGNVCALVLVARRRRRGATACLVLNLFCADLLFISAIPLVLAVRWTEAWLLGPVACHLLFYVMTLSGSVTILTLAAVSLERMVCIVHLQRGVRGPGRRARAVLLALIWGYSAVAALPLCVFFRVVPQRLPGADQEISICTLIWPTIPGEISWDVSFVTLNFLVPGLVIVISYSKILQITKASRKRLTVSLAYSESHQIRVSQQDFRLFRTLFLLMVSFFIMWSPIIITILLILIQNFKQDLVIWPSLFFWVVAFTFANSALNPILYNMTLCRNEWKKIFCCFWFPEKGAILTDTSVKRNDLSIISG
# In short: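 CHOA12 cells stably expressing short-form human GPR120, serum-starved 2 h, were stimulated 7 min at 37 °C with compound (33.33 μM–0.56 nM, 11-point). pERK read by AlphaScreen SureFire; activation normalized to 50 μM linolenic acid and DMSO blank, EC50 by 4-parameter fit.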
# C57BL/6 mice = experiment: Acute oral glucose tolerance test; format: in vivo; conditions: oral glucose tolerance test in mice, dose of 30 mg/kg, AUC t=0-120 min vs vehicle
# Procedure: 1) Acute Oral Glucose Tolerance Test
# C57BL/6 mice were housed individually and fed a standard rodent chow diet. At approximately 11 weeks age, after a 5 h fast, these mice were orally treated with vehicle or test compounds 60 min before a glucose challenge (2 g/kg). Blood glucose levels were determined from tail bleeds taken at −60, 0, 15, 30, 60 and 120 min after the glucose challenge. The blood glucose excursion profile from t=0-120 min was used to calculate an area under the curve (AUC) for compound treatment. This AUC for compound treatment is compared to vehicle treatment.
# In an oral glucose tolerance test in mice at dose of 30 mg/kg, Examples 6, 14 and 80 reduced glucose AUC levels by 40%, 30% and 60% respectively.
compound,measurement,setting,value
"O=C(O)[C@H]1C[C@@H]1CCC12CCC(c3cccc(Oc4ccccc4)c3)(CC1)OC2 (single isomer, unassigned) [Example 14]",EC50,human GPR120,350 nM
same,reduced glucose AUC levels,C57BL/6 mice,30%
"O=C(O)COCCC12CCC(c3cccc(Oc4ccccc4)c3)(CC1)OC2 [Example 6, 2-(2-(1-(3-Phenoxyphenyl)-2-oxabicyclo[2.2.2]octan-4-yl)ethoxy)acetic acid]",EC50,human GPR120,560 nM
same,reduced glucose AUC levels,C57BL/6 mice,40%
"Cc1ccc(Oc2cc(F)cc(C34CCC(CCOCC(=O)O)(CC3)CO4)c2)cc1F [Example 80, 2-(2-(1-(3-fluoro-5-(3-fluoro-4-methylphenoxy)phenyl)-2-oxabicyclo [2.2.2]octan-4-yl)ethoxy) acetic acid]",EC50,human GPR120,220 nM
same,reduced glucose AUC levels,C57BL/6 mice,60%
"O=C(O)COCCC12CCC(c3cc(F)cc(Oc4ccc(F)cc4)c3)(CC1)OC2 [Example 85, 2-(2-(1-(3-fluoro-5-(4-fluorophenoxy)phenyl)-2-oxabicyclo[2.2.2]octan-4-yl)ethoxy)acetic acid]",EC50,human GPR120,310 nM
"COc1cc(Oc2cc(F)cc(C34CCC(CCOCC(=O)O)(CC3)CO4)c2)ccc1F [Example 86, 2-(2-(1-(3-fluoro-5-(4-fluoro-3-methoxyphenoxy)phenyl)-2-oxabicyclo [2.2.2]octan-4-yl)ethoxy) acetic acid]",EC50,human GPR120,850 nM
"O=C(O)COCCC12CCC(c3ccc(F)c(Oc4ccccc4)c3)(CC1)OC2 [Example 87, 2-(2-(1-(4-fluoro-3-phenoxyphenyl)-2-oxabicyclo[2.2.2]octan-4-yl)ethoxy)acetic acid]",EC50,human GPR120,410 nM
"O=C(O)COCCC12CCC(c3ccc(F)c(Oc4ccc(F)cc4)c3)(CC1)OC2 [Example 88, 2-(2-(1-(4-fluoro-3-(4-fluorophenoxy)phenyl)-2-oxabicyclo[2.2.2]octan-4-yl)ethoxy)acetic acid]",EC50,human GPR120,340 nM
"Cc1ccc(Oc2cc(C34CCC(CCOCC(=O)O)(CC3)CO4)ccc2F)cc1F [Example 89, 2-(2-(1-(4-fluoro-3-(3-fluoro-4-methylphenoxy)phenyl)-2-oxabicyclo [2.2.2]octan-4-yl)ethoxy) acetic acid]",EC50,human GPR120,350 nM
"COc1cc(Oc2ccccc2)cc(C23CCC(CCOCC(=O)O)(CC2)CO3)c1 [Example 90, 2-(2-(1-(3-methoxy-5-phenoxyphenyl)-2-oxabicyclo[2.2.2]octan-4-yl)ethoxy)acetic acid]",EC50,human GPR120,950 nM
"COc1cc(Oc2ccc(F)c(F)c2)cc(C23CCC(CCOCC(=O)O)(CC2)CO3)c1 [Example 91, 2-(2-(1-(3-(3,4-difluorophenoxy)-5-methoxyphenyl)-2-oxabicyclo[2.2.2]octan-4-yl)ethoxy)acetic acid]",EC50,human GPR120,630 nM
"COc1cc(Oc2ccc(F)cc2)cc(C23CCC(CCOCC(=O)O)(CC2)CO3)c1 [Example 92, 2-(2-(1-(3-(4-fluorophenoxy)-5-methoxyphenyl)-2-oxabicyclo[2.2.2]octan-4-yl)ethoxy)acetic acid]",EC50,human GPR120,800 nM
"COc1cc(Oc2ccc(C)c(F)c2)cc(C23CCC(CCOCC(=O)O)(CC2)CO3)c1 [Example 93, 2-(2-(1-(3-(3-fluoro-4-methylphenoxy)-5-methoxyphenyl)-2-oxabicyclo[2.2.2]octan-4-yl)ethoxy)acetic acid]",EC50,human GPR120,520 nM
"Cc1ccc(Oc2cc(F)cc(C34CCC(CCOCC(=O)NO)(CC3)CO4)c2)cc1F [Example 94, 2-(2-(1-(3-Fluoro-5-(3-fluoro-4-methylphenoxy)phenyl)-2-oxabicyclo[2.2.2]octan-4-yl)ethoxy)-N-hydroxyacetamide]",EC50,human GPR120,1160 nM
"O=C(O)COCCC12CCC(c3cc(F)c(F)c(Oc4ccc(F)cc4)c3)(CC1)OC2 [Example 95, 2-(2-(1-(3,4-Difluoro-5-(4-fluorophenoxy)phenyl)-2-oxabicyclo[2.2.2]octan-4-yl)ethoxy) acetic acid]",EC50,human GPR120,350 nM
"O=C(O)C1CC1COC12CCC(c3cccc(Oc4ccccc4)c3)(CC1)OC2 (stereo not shown) [Example 96, 2-(((1-(3-Phenoxyphenyl)-2-oxabicyclo[2.2.2]octan-4-yl)oxy)methyl) cyclopropanecarboxylic acid]",EC50,human GPR120,1680 nM
"O=C(O)C1CC1COCC12CCC(c3cccc(Oc4ccccc4)c3)(CC1)OC2 (stereo not drawn) [Example 97, Trans-2-(((1-(3-phenoxyphenyl)-2-oxabicyclo[2.2.2]octan-4-yl)methoxy)methyl) cyclopropane carboxylic acid]",EC50,human GPR120,390 nM
"COc1ccc(Oc2cccc(C34CCC(CCOCC(=O)O)(CC3)OC4)c2)cc1F [Example 100, 2-(2-(4-(3-(3-Fluoro-4-methoxyphenoxy)phenyl)-2-oxabicyclo[2.2.2]octan-1-yl)ethoxy) acetic acid]",EC50,human GPR120,550 nM
Cc1ccc(Oc2cccc(C34CCC(CCOCC(=O)O)(CC3)OC4)c2)cc1F [Example 101],EC50,human GPR120,320 nM
COc1cccc(Oc2cccc(C34CCC(CCOCC(=O)O)(CC3)OC4)c2)c1 [Example 102],EC50,human GPR120,660 nM
Cc1cc(Oc2cccc(C34CCC(CCOCC(=O)O)(CC3)OC4)c2)ccc1F [Example 103],EC50,human GPR120,540 nM
O=C(O)COCCC12CCC(c3cccc(Oc4cccnc4)c3)(CC1)CO2 [Example 104],EC50,human GPR120,7780 nM
O=C(O)COCCC12CCC(c3cccc(Oc4ccc(F)cc4)c3)(CC1)CO2 [Example 105],EC50,human GPR120,3440 nM
Cc1ccc(Oc2cccc(C34CCC(CCOCC(=O)O)(CC3)OC4)c2)cc1 [Example 106],EC50,human GPR120,580 nM
N#Cc1cccc(Oc2cccc(C34CCC(CCOCC(=O)O)(CC3)OC4)c2)c1 [Example 107],EC50,human GPR120,1870 nM
"Cc1ccc(Oc2cc(F)cc(C34CCC(CCOCC(=O)O)(CC3)OC4)c2)cc1F [Example 108, 2-(2-(4-(3-Fluoro-5-(3-fluoro-4-methylphenoxy)phenyl)-2-oxabicyclo[2.2.2]octan-1-yl)ethoxy)acetic acid]",EC50,human GPR120,730 nM
"O=C(O)COCCC12CCC(c3cccc(Oc4ccccn4)c3)(CC1)CO2 [Example 109, 2-(2-(4-(3-(Pyridin-2-yloxy)phenyl)-2-oxabicyclo[2.2.2]octan-1-yl)ethoxy)acetic acid]",EC50,human GPR120,5550 nM
"O=C(O)COCCCC12CCC(c3cccc(Oc4ccccc4)c3)(CC1)CO2 [Example 110, 2-(3-(4-(3-Phenoxyphenyl)-2-oxabicyclo[2.2.2]octan-1-yl)propoxy)acetic acid]",EC50,human GPR120,490 nM
"O=C(O)COCCC12CCC(c3cccc(OC4CCCCC4)c3)(CC1)CO2 [Example 111, 2-(2-(4-(3-(Cyclohexyloxy)phenyl)-2-oxabicyclo[2.2.2]octan-1-yl)ethoxy) acetic acid]",EC50,human GPR120,640 nM
Cc1ccc(Oc2cc(C34CCC(CCOCC(=O)O)(CC3)OC4)ccc2F)cc1F [Example 112],EC50,human GPR120,270 nM
Cc1ccc(Oc2cc(C34CCC(CCOCC(=O)O)(CC3)OC4)ccc2F)cc1C [Example 113],EC50,human GPR120,860 nM
Cc1cc(Oc2cc(C34CCC(CCOCC(=O)O)(CC3)OC4)ccc2F)ccc1C#N [Example 114],EC50,human GPR120,2730 nM
"Cc1ccc(Oc2cccc(C34CCC(CCOCC(=O)O)(CC3)CO4)c2)cn1 [Example 115, 2-(2-(1-(3-(6-methylpyridin-3-yloxy)phenyl)-2-oxabicyclo[2.2.2]octan-4-yl)ethoxy)acetic acid]",EC50,human GPR120,5560 nM
"O=C(O)COCCC12CCC(c3cccc(Oc4ccc(F)c(F)c4)n3)(CC1)OC2 [Example 116, 2-(2-(1-(6-(3,4-Difluorophenoxy)pyridin-2-yl)-2-oxabicyclo[2.2.2]octan-4-yl)ethoxy) acetic acid]",EC50,human GPR120,1150 nM
"O=C(O)COCCC12CCC(c3cccc(Oc4cccc(O)c4)c3)(CC1)OC2 [Example 117, 2-(2-(1-(3-(3-Hydroxyphenoxy)phenyl)-2-oxabicyclo[2.2.2]octan-4-yl)ethoxy)acetic acid]",EC50,human GPR120,5210 nM
"CCc1cccc(Oc2cccc(C34CCC(CC[C@@H]5C[C@H]5C(=O)O)(CC3)CO4)c2)c1 [Example 118, (1R,2R)-2-(2-(1-(3-(3-Ethylphenoxy)phenyl)-2-oxabicyclo[2.2.2]octan-4-yl)ethyl)cyclo-propane carboxylic acid]",EC50,human GPR120,1890 nM
"CCc1cccc(Oc2cccc(C34CCC(CCOCC(=O)O)(CC3)CO4)c2)c1 [Example 119, 2-(2-(1-(3-(3-Ethylphenoxy)phenyl)-2-oxabicyclo[2.2.2]octan-4-yl)ethoxy)acetic acid]",EC50,human GPR120,1600 nM
"O=C(O)C1CC1CCCC12CCC(c3cccc(Oc4ccccc4)c3)(CC1)OC2 (stereo not shown) [Example 120, 2-(3-(1-(3-Phenoxyphenyl)-2-oxabicyclo[2.2.2]octan-4-yl)propyl) cyclopropane carboxylic acid]",EC50,human GPR120,2210 nM
